Source: paper PMC6941404, “Pigmentosins from Gibellula sp. as antibiofilm agents and a new glycosylated asperfuran from Cordyceps javanica” (Beilstein Journal of Organic Chemistry, 2019)
Read-outs that look alike come from different tables or passages of the source.

Tests used:
[1] = system: Staphylococcus aureus DSM1104; test: Anti-biofilm activity, microtiter dish biofilm formation assay; assay type: cell-based; details: S. aureus DSM1104 (ATCC25923), lowest concentration preventing biofilm formation by at least 50%, 24 h, NA = No activity
Description: (§1) The isolated compounds were also tested for their ability to interfere in the biofilm formation of Staphylococcus aureus DSM1104 and Pseudomonas aeruginosa PA14 [51]. The biofilm inhibition assay was performed in 96-well microtiter plates using the microtiter dish biofilm formation assay described by O’Toole, with minor modifications, as outlined in our recent publications. The antibiofilm activity is expressed as MIC values, which is defined as the lowest concentration of substance that prevents biofilm formation of a target microorganism by at least 50%. […]
(§2) Anti-biofilm activity assay
(§3) The determination of the ability of isolated compounds to prevent biofilm formation of S. aureus DSM1104 (ATCC25923) and P. aeruginosa PA148 was performed using the microtiter dish biofilm formation assay described by O’Toole9 with minor modification provided in our recent publications 1, 6, 10–14. The biofilm forming strains were enriched overnight in CASO medium with and without 4% glucose for S. aureus and P. aeruginosa , respectively. After incubation at 37 °C under shaking condition, the overnight cultures were adjusted to equal the turbidity of 0.5 McFarland standard using the assay medium. The assay was carried out in 96 -well tissue cultured -treated microplates (TPP®, Germany) for S. aureus and non-treated plates (Falcon®MicroTestTM, USA) for P. aeruginosa , in which 10 μ L of each compound (0.5 mg/m L) in six replicates were mixed together with 140 μ L of bacterial suspension. Methanol and CASO medium with and without 4% glucose were used as negative controls and tetracycline (100 μg/m L) as positive control. Plates were covered with a sterile adhesive porous paper (Kisker Biotech GmbH, Steinfurt, Germany) and incubated at 37 °C for 24 h.
(§4) After incubation, ba cterial biofilms were stained with 0.1% crystal violet solution (Sigma -Aldrich) following the protocol of O’Toole .9 Then, the biofilm was subsequently quantified using a microplate reader at 550 nm. 12 In the current study, the antibiofilm activity was expr essed as MIC value which was defined as the lowest concentration of substance that prevents the biofilm formation of a target microorganism by at least 50%. […]

[2] = system: Pseudomonas aeruginosa PA14; test: as above; assay type: cell-based; details: lowest concentration preventing biofilm formation by at least 50%, 24 h, NA = No activity
Description: as §1, §2, §3, §4

S. aureus DSM1104 = test: Bacteriostatic and bactericidal activity assay (Bioscreen growth curves, MBC on agar); assay type: cell-based, Staphylococcus aureus; details: for MIC90: read-out: Bacteriostatic activity MIC90; for Growth of S. aureus cells relative to growth control: at the lowest concentration where the biofilm formation was interrupted
Description: The assay was performed with each concentration tested in quadruplicates. The MIC was considered as the lowest concentration where the percentage of inhibition was higher than or equal to 90%. The minimum bactericidal concentration (MBC) of isolated compounds was also determined by transferring an aliquot of 2 µL from all concentrations tested onto nutrient agar (NA) plates, which were then incubated at 30 °C for 24 h. The MBC endpoint was defined as the lowest concentration of the compounds that killed microorganisms, where no visible growth of the microorganism tested was observed on the agar plates. The experimental procedures and the results are given in detail in Supporting Information File 1. […]
Bacteriostatic and bactericidal activity assay […]
aeruginosa PA14 were further evaluated for their bacteriostatic and bactericidal activit ies. The assay was performed in the Bioscreen 100 -well Honeycomb plate according to the protocol described by Yuyama et al. 13 where the MIC values were determined. The bacterial inoculum was prepared by growing S. aureus DSM1104 in Luria -Bertani broth (LB) for 24 h at 30 °C and then adjusting to 0.5 McFarland turbidity standard. The 0.5 McFarland bacterial suspension (296.25 µL) was transferred to the well containing 3.75 µL of each compound (20 mg/mL) and was subsequently two -fold diluted to give 8 concentrations ranging from 250 –1.95 µg/mL. Since compound 2 and the remaining five compounds could completely be dissolved in MeOH and dimethyl sulfoxide (DMSO), respectively, MeOH and DMSO were used as the solvent controls. The assay was performed with each concentration tested in quadruplicate. The bacterial growth was monitored on the Bioscreen -C automated growth curve analysis system (Oy Growth Curves AB Ltd, Helsinki, Finland) for 24 h with the optical density at 600 nm measured at 15 -min intervals. The MIC of each compound tested was read at 24 h of incubation and was considered as the lowest concentration where the percentage of inhibition was higher than or equal to 90%. Herein, the minimum bactericidal concentration (MBC) of isolated compounds was also determined by transferring an aliquot of 2 µL from all concentration tested onto Nutrient Agar (NA) plates which were then incubate d at 30 °C for 24 h. The MBC endpoint was defined as the lowest concentration of the compounds that kill microorganisms where no visible growth of the microorganism tested was observed on the agar plates.

[3] = S. aureus, minimum bactericidal concentration, no visible growth on NA plates, 30 °C, 24 h
[4] = Staphylococcus aureus, DSM1104, 24 h

SMILES	Anti-biofilm activity (MIC) SA [1] [µg/mL]	Anti-biofilm activity (MIC) SA ([1]; listed as 1)	Anti-biofilm activity (MIC) PA [2]	Cell growth (%) at 1.9 µg/ml (S. aureus DSM1104; S. aureus, 24 h) [%]	Cell growth (%) at 3.9 µg/ml (S. aureus DSM1104; S. aureus, 24 h) [%]	Cell growth (%) at 7.8 µg/ml (S. aureus DSM1104; S. aureus, 24 h) [%]	Cell growth (%) at 15.6 µg/ml (S. aureus DSM1104; S. aureus, 24 h) [%]	Cell growth (%) at 31.3 µg/ml (S. aureus DSM1104; S. aureus, 24 h) [%]	Cell growth (%) at 62.5 µg/ml (S. aureus DSM1104; S. aureus, 24 h) [%]	Cell growth (%) at 125 µg/ml (S. aureus DSM1104; S. aureus, 24 h) [%]	Cell growth (%) at 250 µg/ml (S. aureus DSM1104; S. aureus, 24 h) [%]	MBC (S. aureus DSM1104; [3])	MBC (S. aureus DSM1104; [4]) [µg/mL]	MIC90 (S. aureus DSM1104; [4]) [µg/mL]	Growth of S. aureus cells relative to growth control (S. aureus DSM1104)	Anti-biofilm activity (MIC) SA ([1]; listed as 2)	Anti-biofilm activity (MIC) SA ([1]; listed as pigmentosin B (2)) [µg/mL]	MIC90 (S. aureus DSM1104; Staphylococcus aureus, DSM1104, S. aureus, lowest concentration with inhibition >= 90% at 24 h) [µg/mL]	MBC (S. aureus DSM1104; Staphylococcus aureus, DSM1104, S. aureus, minimum bactericidal concentration, no visible growth on NA plates, 30 °C, 24 h, read-out: MBC) [µg/mL]
COc1cc(O)c2c(O)c3c(cc2c1-c1c(OC)cc(O)c2c(O)c4c(cc12)CC(C)OC4=O)CC(C)OC3=O (stereo not shown) [Pigmentosin A (1), pigmentosin A]	1.9	active	nor antibiofilm activity	89.5	53.2	32.8	30.3	25.4	22.6	23.8	32.5	higher than 250 µg/ml	> 250	> 250	more than 80%				
COc1cc(O)c2c(O)c3c(cc2c1-c1c(OC)cc(O)c2c(O)c4c(cc12)CC(CC(C)O)OC4=O)CC(C)OC3=O (stereo not shown) [Pigmentosin B (2), pigmentosin B]	15.6		nor antibiofilm activity	100	94.4	84.9	54.3	40.9	42.8	29.9	26.8	higher than 250 µg/ml			more than 80%	active	15.6	> 250	> 250
